Tests used:
Details in all cases: 250 g/ha, evaluated after 13 days, five-point scale
Setaria faberi (SETFA) [1] = experiment: Post-emergence herbicidal glasshouse test; assay type: in vivo
[2] = system: Echinochloa crus-galli (ECHCG); experiment: Pre-emergence herbicidal glasshouse test; assay type: in vivo
Setaria faberi (SETFA) [3] = experiment: Pre-emergence herbicidal glasshouse test; assay type: in vivo
[4] = system: Echinochloa crus-galli (ECHCG); experiment: Post-emergence herbicidal glasshouse test; assay type: in vivo
[5] = system: Ipomoea hederacea (IPOHE); experiment: Post-emergence herbicidal glasshouse test; assay type: in vivo
AMAPA [6] = experiment: Pre-emergence herbicidal glasshouse test; assay type: in vivo, Amaranthus tuberculatus
[7] = system: Amaranthus retoflexus (AMARE); experiment: Post-emergence herbicidal glasshouse test; assay type: in vivo
[8] = system: Ipomoea hederacea (IPOHE); experiment: Pre-emergence herbicidal glasshouse test; assay type: in vivo
[9] = system: Amaranthus retoflexus (AMARE); experiment: Pre-emergence herbicidal glasshouse test; assay type: in vivo
AMAPA [10] = experiment: Post-emergence herbicidal glasshouse test; assay type: in vivo, Amaranthus tuberculatus

| Structure (SMILES) | percentage damage caused to the plant, SETFA (Setaria faberi (SETFA) [1]) | percentage damage caused to the plant, ECHCG [2] | percentage damage caused to the plant, SETFA (Setaria faberi (SETFA) [3]) | percentage damage caused to the plant, ECHCG [4] | percentage damage caused to the plant, IPOHE [5] | percentage damage caused to the plant, AMAPA (AMAPA [6]) | percentage damage caused to the plant, AMARE [7] | percentage damage caused to the plant, IPOHE [8] | percentage damage caused to the plant, AMARE [9] | percentage damage caused to the plant, AMAPA (AMAPA [10]) |
| --- | --- | --- | --- | --- | --- | --- | --- | --- | --- | --- |
| Fc1cc(Cl)cnc1Oc1cccc2nc(C(F)(F)F)ncc12 [Compound 1.006] | 1 (1=0-20%) | 1 (1=0-20%) | 1 (1=0-20%) | 1 (1=0-20%) | 2 (2=21-40%) | 1 (1=0-20%) | 2 (2=21-40%) | 1 (1=0-20%) | 1 (1=0-20%) | 1 (1=0-20%) |
| FC(F)(F)c1ncc2c(Oc3ncccn3)cccc2n1 [Compound 1.008] | 1 (1=0-20%) | 1 (1=0-20%) | 4 (4=61-80%) | 1 (1=0-20%) | 3 (3=41-60%) | 4 (4=61-80%) | 3 (3=41-60%) | 3 (3=41-60%) | 4 (4=61-80%) | 3 (3=41-60%) |
| FC(F)Oc1cnc(Oc2cccc3nc(C(F)(F)F)ncc23)nc1 [Compound 1.009] | 1 (1=0-20%) | 1 (1=0-20%) | 1 (1=0-20%) | 1 (1=0-20%) | 1 (1=0-20%) | 2 (2=21-40%) | 1 (1=0-20%) | 1 (1=0-20%) | 1 (1=0-20%) | 1 (1=0-20%) |
| COc1ncc2c(Oc3ncc(Cl)cn3)cccc2n1 [Compound 1.016] | 1 (1=0-20%) | 3 (3=41-60%) | 3 (3=41-60%) | 1 (1=0-20%) | 2 (2=21-40%) | 5 (5=81-100%) | 4 (4=61-80%) | 4 (4=61-80%) | 5 (5=81-100%) | 5 (5=81-100%) |
| FC(F)c1ncc2c(Oc3ncc(Cl)cn3)cccc2n1 [Compound 1.019] | 3 (3=41-60%) | 5 (5=81-100%) | 5 (5=81-100%) | 2 (2=21-40%) | 4 (4=61-80%) | 5 (5=81-100%) | 4 (4=61-80%) | 4 (4=61-80%) | 5 (5=81-100%) | 3 (3=41-60%) |
| FC(F)(F)c1ccc2c(Oc3ncc(Cl)cn3)cccc2n1 [Compound 1.020, 5-(5-chloropyrimidin-2-yl)oxy-2 (trifluoromethyl)quinoline] | 5 (5=81-100%) | 5 (5=81-100%) | 5 (5=81-100%) | 4 (4=61-80%) | 4 (4=61-80%) | 5 (5=81-100%) | 5 (5=81-100%) | 4 (4=61-80%) | 5 (5=81-100%) | 5 (5=81-100%) |
| Cc1cc(C(F)(F)F)nc2cccc(Oc3ncc(Cl)cn3)c12 [Compound 1.021] | 1 (1=0-20%) | 1 (1=0-20%) | 1 (1=0-20%) | 1 (1=0-20%) | 2 (2=21-40%) | 1 (1=0-20%) | 3 (3=41-60%) | 1 (1=0-20%) | 1 (1=0-20%) | 2 (2=21-40%) |
| Clc1cnc(Oc2cccc3ccncc23)nc1 [Compound 1.022] | 1 (1=0-20%) | 1 (1=0-20%) | 1 (1=0-20%) | 1 (1=0-20%) | 1 (1=0-20%) | 1 (1=0-20%) | 1 (1=0-20%) | 1 (1=0-20%) | 1 (1=0-20%) | 2 (2=21-40%) |
| Cc1cnc(Oc2cccc3nc(C(F)(F)F)ccc23)nc1 [Compound 1.040] | 4 (4=61-80%) | 5 (5=81-100%) | 5 (5=81-100%) | 4 (4=61-80%) | 5 (5=81-100%) | 5 (5=81-100%) | 4 (4=61-80%) | 5 (5=81-100%) | 5 (5=81-100%) | 4 (4=61-80%) |
| FC(F)(F)c1ccc2c(Oc3ncc(Br)cn3)cccc2n1 [Compound 1.041] | 4 (4=61-80%) | 3 (3=41-60%) | 4 (4=61-80%) | 2 (2=21-40%) | 3 (3=41-60%) | 5 (5=81-100%) | 5 (5=81-100%) | 2 (2=21-40%) | 5 (5=81-100%) | 5 (5=81-100%) |
| FC(F)(Cl)c1ncc2c(Oc3ncc(Cl)cn3)ccc(Cl)c2n1 [Compound 1.044] | 3 (3=41-60%) | 2 (2=21-40%) | 5 (5=81-100%) | 1 (1=0-20%) | 2 (2=21-40%) | 5 (5=81-100%) | 3 (3=41-60%) | 1 (1=0-20%) | 3 (3=41-60%) | 3 (3=41-60%) |
| Cc1ccc(Oc2ncc(Br)cn2)c2cnc(C(F)(F)Cl)nc12 [Compound 1.047] | 1 (1=0-20%) | 1 (1=0-20%) | 1 (1=0-20%) | 1 (1=0-20%) | 2 (2=21-40%) | 2 (2=21-40%) | 2 (2=21-40%) | 1 (1=0-20%) | 2 (2=21-40%) | 2 (2=21-40%) |
